Publication PMC8247773, “Benzohydrazide and Phenylacetamide Scaffolds: New Putative ParE Inhibitors” (Frontiers in Bioengineering and Biotechnology, 2021)
≈ marks a conversion by molar mass, not a printed value. Where “and” joins values, the source holds several entries; their conditions need not be identical. Equal values may be shown once. Read-outs that look alike come from different tables or passages of the source.

How the values were obtained:
[1] = system: Escherichia coli (NCIM 2567); parameters: method as in Yele et al., 2020, 2021; settings: ref Yele et al., 2020, 2021; cited from earlier work
[2] = system: Staphylococcus aureus (NCIM 5022); parameters: method as in Yele et al., 2020, 2021; settings: ref Yele et al., 2020, 2021; cited from earlier work
[3] = system: Bacillus subtilis (NCIM 2545); parameters: method as in Yele et al., 2020, 2021; settings: ref Yele et al., 2020, 2021; cited from earlier work
Vero cells [4] = system: Vero cells
MRSA (ATCC43300) [5] = assay: Antibacterial susceptibility test, microbroth dilution MIC; format: cell-based, methicillin-resistant Staphylococcus aureus; settings: mean ± SD
E. coli ParE enzyme = molecular target: T1, E. coli ParE enzyme (Escherichia coli, UniProt P20083); assay: E. coli ParE ATPase enzyme inhibition assay (ProFoldin kit, malachite green); format: biochemical; settings: ATPase activity, mean ± SD (n = 3)
T1 construct: purchased ProFoldin, Hudson, United States
Outline: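 E. coli ParE ATPase activity measured as inorganic phosphate released from ATP hydrolysis in the presence of DNA. Reaction ran 1 h at 37°C, quenched with malachite green dye, absorbance read at 650 nm after 5 min. IC50 from non-linear regression against no-enzyme and no-compound controls.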

[6] = system: Escherichia coli (NCIM 2065); assay: Minimum bactericidal concentration (MBC); format: cell-based; settings: E. Coli (NCIM 2065); for MBC/MIC: ratio ≤2 bactericidal, ≥4 tolerance
Description: (§1) MBC can be defined as the minimum concentration of a compound required to kill the bacteria over a fixed period under precise conditions. […] Colonies were counted, and colony forming unit (CFU) per milliliter was calculated.

[7] = system: Staphylococcus epidermis (NCIM 2493); parameters: method as in Yele et al., 2020, 2021; settings: ref Yele et al., 2020, 2021; cited from earlier work
[8] = system: Mycobacterium tuberculosis (NCIM 2984); parameters: method as in Yele et al., 2020, 2021; settings: ref Yele et al., 2020, 2021; cited from earlier work
[9] = system: Pseudomonas aeruginosa (NCIM 2036); parameters: method as in Yele et al., 2020, 2021; settings: ref Yele et al., 2020, 2021; cited from earlier work
E. coli [10] = assay: Time-kill kinetics; format: cell-based, Escherichia coli; settings: 0.5× and 1.0× MIC, 0-24 h
Description: Bactericidal activity was evaluated for the compounds by the time-kill kinetics. […] 50 μL aliquot of the culture was inoculated at regular time intervals of 0, 2, 4, 8, 16, and 24 h onto the solidified agar plates, followed by incubation at 37°C for 24 h. Ciprofloxacin is used as a reference throughout the study. CFU was calculated by the colonies formed on the agar plate at each time interval. Time-kill curves were plotted using the CFU/mL of surviving bacteria at each time point in the absence or presence of the compound ([Tsuji et al., 2008]).

MRSA (ATCC43300) [11] = assay: Minimum bactericidal concentration (MBC); format: cell-based, methicillin-resistant Staphylococcus aureus
Description: as §1

MRSA (NCIM 5021) [12] = assay: Minimum bactericidal concentration (MBC); format: cell-based, methicillin-resistant Staphylococcus aureus
Description: as §1

E. coli [13] = assay: Post antibiotic effect (PAE); format: cell-based, Escherichia coli; settings: for Time for 1 log10: untreated control 2 h
E. coli [14] = assay: Checkerboard synergy with FDA approved drugs; format: cell-based, Escherichia coli; settings: ciprofloxacin, gentamicin, rifampicin and doxycycline
[15] = system: Klebsiella pneumonia (NCIM 2706); parameters: method as in Yele et al., 2020, 2021; settings: ref Yele et al., 2020, 2021; cited from earlier work
[16] = system: Escherichia coli (NCIM 2065); assay: Antibacterial susceptibility test, microbroth dilution MIC; format: cell-based; settings: E. Coli (NCIM 2065), mean ± SD
Vero cells [17] = assay: In vitro cytotoxicity MTT assay; settings: CC50 Vero cells / IC50
MRSA (NCIM 5021) [18] = assay: Antibacterial susceptibility test, microbroth dilution MIC; format: cell-based, methicillin-resistant Staphylococcus aureus; settings: mean ± SD
[19] = In vitro cytotoxicity MTT assay; settings: African green monkey, Vero cells
[20] = system: Salmonella typhi (NCIM 2501); parameters: method as in Yele et al., 2020, 2021; settings: ref Yele et al., 2020, 2021; cited from earlier work
[21] = Staphylococcus aureus, read-out: Minimum inhibitory concentration
[22] = Staphylococcus aureus, read-out: MBC

T1 sequence (P20083 whole entry): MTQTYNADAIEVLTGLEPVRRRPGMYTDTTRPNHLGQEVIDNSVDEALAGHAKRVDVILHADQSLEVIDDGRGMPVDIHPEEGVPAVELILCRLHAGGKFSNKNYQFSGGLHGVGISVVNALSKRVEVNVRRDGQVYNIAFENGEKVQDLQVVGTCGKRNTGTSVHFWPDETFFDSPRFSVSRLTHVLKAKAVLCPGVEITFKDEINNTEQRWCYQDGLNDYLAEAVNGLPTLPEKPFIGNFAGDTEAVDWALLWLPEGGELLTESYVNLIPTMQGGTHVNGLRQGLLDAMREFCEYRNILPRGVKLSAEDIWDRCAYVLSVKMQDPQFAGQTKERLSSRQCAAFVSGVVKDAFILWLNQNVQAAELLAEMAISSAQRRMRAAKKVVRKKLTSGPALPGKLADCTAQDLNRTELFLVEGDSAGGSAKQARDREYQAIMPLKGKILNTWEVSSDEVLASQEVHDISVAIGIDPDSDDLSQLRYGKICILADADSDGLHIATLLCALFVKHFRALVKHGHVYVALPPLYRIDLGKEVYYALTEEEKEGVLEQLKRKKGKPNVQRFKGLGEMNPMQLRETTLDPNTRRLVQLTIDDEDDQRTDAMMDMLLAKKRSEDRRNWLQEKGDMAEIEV
T1 sequence (P0AFI2 whole entry, further chain): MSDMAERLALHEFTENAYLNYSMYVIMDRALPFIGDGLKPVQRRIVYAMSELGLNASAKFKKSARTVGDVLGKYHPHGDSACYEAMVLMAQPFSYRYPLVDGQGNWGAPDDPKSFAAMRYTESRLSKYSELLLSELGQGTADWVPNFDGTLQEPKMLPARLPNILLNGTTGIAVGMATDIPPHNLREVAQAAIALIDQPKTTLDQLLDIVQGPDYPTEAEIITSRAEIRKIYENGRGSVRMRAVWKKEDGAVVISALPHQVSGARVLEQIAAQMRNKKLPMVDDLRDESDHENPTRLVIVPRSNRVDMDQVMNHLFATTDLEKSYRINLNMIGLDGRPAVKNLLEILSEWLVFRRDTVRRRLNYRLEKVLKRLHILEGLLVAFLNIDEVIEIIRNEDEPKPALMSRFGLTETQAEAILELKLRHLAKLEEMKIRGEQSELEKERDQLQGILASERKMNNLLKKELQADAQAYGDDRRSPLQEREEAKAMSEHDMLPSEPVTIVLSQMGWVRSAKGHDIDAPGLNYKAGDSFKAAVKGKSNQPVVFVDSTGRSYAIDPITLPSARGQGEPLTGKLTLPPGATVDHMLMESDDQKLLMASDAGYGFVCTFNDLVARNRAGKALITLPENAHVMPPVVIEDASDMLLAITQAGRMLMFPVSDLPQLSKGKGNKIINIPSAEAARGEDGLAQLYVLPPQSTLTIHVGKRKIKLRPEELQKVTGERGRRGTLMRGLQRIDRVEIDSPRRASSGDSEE

In the case of `O=C(COc1ccccc1NC(=O)CCl)Nc1ccc(C(=O)O)cc1Br` [Compound 5], the “Minimum inhibitory concentration (MIC) E. c” value [1] is given as 8.25, the “Minimum inhibitory concentration (MIC) S. a” value [2] is given as 2.64 and the “Minimum inhibitory concentration (MIC) B. s” value [3] is given as 7.82. For the same compound, the CC50 (Vero cells [4]) was 61.7583 µg/mL (≈ 140 µM), the Minimum inhibitory concentration (MRSA (ATCC43300) [5]) was 0.68 µg/mL and 0.68 ± 0.08 µg/mL and the “IC50 against E. coli ParE enzyme” value (E. coli ParE enzyme) was 0.35 ± 0.03 µg/mL (≈ 0.792 µM). The MBC [6] was 0.64 ± 0.42 µg/mL (≈ 1.45 µM), the MBC/MIC [6] was 1 and the “Minimum inhibitory concentration (MIC) S. e” value [7] was 5.63. The “Minimum inhibitory concentration (MIC) M. t” value [8] was 0.78, the “Minimum inhibitory concentration (MIC) P. a” value [9] was 6.25 and the Time-kill kinetics result (E. coli [10]) was “bactericidal property”. For the same compound, the MBC (MRSA (ATCC43300) [11]) was 0.68 ± 0.08 µg/mL (≈ 1.54 µM), the MBC/MIC (MRSA (ATCC43300) [11]) was 1 and the MBC (MRSA (NCIM 5021) [12]) was 1.54 ± 0.11 µg/mL (≈ 3.49 µM). The MBC/MIC (MRSA (NCIM 5021) [12]) was 2, the “PAE = T - C” value (E. coli [13]; 1 × mic) was 1 h and the “Time for 1 log10” value (E. coli [13]; 1 × mic) was 3 h. The “PAE = T - C” value (E. coli [13]; 10 × mic) was ~2 h, the “Time for 1 log10” value (E. coli [13]; 10 × mic) was 4 h and the “Synergy with FDA-approved antibiotics” value (E. coli [14]) was “synergized”. The “Minimum inhibitory concentration (MIC) K. p” value [15] was 7.52, the Minimum inhibitory concentration [16] was 0.64 µg/mL and 0.64 ± 0.03 µg/mL and the “SI (CC50/IC50)” value (Vero cells [17]) was 176.4531. For the same compound, the Minimum inhibitory concentration (MRSA (NCIM 5021) [18]) was 0.72 ± 0.05 µg/mL (≈ 1.63 µM).

For `O=C(CCl)Nc1ccccc1OCC(=O)Nc1ccc(C(=O)O)cc1[N+](=O)[O-]` [Compound 8], the “Minimum inhibitory concentration (MIC) E. c” value [1] is given as 0.70, the “Minimum inhibitory concentration (MIC) S. a” value [2] is given as 8.64 and the “Minimum inhibitory concentration (MIC) B. s” value [3] is given as 7.80. It also gave an MIC (MRSA (ATCC43300) [5]; [21]) of 1.06 ± 0.12 µg/mL (≈ 2.6 µM), an IC50 (E. coli ParE enzyme; read-out: IC50 against E. coli ParE enzyme (converted)) of 662 nM and an MBC/MIC [6] of 1. For the same compound, the MBC ([6]; Escherichia coli, NCIM2065, read-out: MBC) was 0.93 ± 0.03 µg/mL (≈ 2.28 µM), the “Minimum inhibitory concentration (MIC) S. e” value [7] was 4.83 and the “Minimum inhibitory concentration (MIC) M. t” value [8] was 1.38. The “Minimum inhibitory concentration (MIC) P. a” value [9] was 0.69, the MBC/MIC (MRSA (ATCC43300) [11]) was 2 and the MBC (MRSA (ATCC43300) [11]; [22]) was 2.46 ± 0.12 µg/mL (≈ 6.03 µM). For the same compound, the MBC/MIC (MRSA (NCIM 5021) [12]) was 1, the MBC (MRSA (NCIM 5021) [12]; [22]) was 0.63 ± 0.13 µg/mL (≈ 1.55 µM) and the “Minimum inhibitory concentration (MIC) K. p” value [15] was 0.72. For the same compound, the MIC ([16]; Escherichia coli, NCIM2065, read-out: Minimum inhibitory concentration) was 0.93 ± 0.03 µg/mL (≈ 2.28 µM), the CC50 at 48 h [19] was 257 µg/mL (≈ 630 µM) and the MIC (MRSA (NCIM 5021) [18]; [21]) was 0.66 µg/mL (≈ 1.62 µM). For the same compound, the Minimum inhibitory concentration (MRSA (NCIM 5021) [18]) was 0.66 ± 0.13 µg/mL (≈ 1.62 µM) and the “Minimum inhibitory concentration (MIC) S. t” value [20] was 0.72.
